Source: ChEMBL document CHEMBL4392828, “Structural modification of indomethacin toward selective inhibition of COX-2 with a significant increase in van der Waals contributions” (Bioorg Med Chem, 2019)
Calls of active or inactive are those of the source. No cut-off for these calls is given here.

Target: T1, Prostaglandin G/H synthase 1 (Ovis aries) (UniProt P05979)
T1 sequence (whole entry): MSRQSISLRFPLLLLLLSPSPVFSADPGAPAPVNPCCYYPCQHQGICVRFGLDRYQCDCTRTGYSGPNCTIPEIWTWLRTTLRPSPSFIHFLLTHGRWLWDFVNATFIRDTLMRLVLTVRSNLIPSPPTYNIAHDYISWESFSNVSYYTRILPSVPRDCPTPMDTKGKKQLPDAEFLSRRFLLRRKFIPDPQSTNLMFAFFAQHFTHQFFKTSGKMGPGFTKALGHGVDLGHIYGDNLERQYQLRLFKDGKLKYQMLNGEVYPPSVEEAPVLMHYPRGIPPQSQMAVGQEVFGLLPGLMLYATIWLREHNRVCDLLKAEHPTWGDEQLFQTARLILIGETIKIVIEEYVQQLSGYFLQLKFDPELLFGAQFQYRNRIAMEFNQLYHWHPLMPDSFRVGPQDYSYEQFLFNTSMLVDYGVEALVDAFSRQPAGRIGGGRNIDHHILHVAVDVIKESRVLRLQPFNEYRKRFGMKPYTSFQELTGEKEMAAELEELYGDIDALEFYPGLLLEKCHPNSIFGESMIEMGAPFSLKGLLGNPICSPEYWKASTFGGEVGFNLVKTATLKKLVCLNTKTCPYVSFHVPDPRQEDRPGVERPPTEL
Assay: Inhibition of ovine COX1 assessed as reduction in PGF2alpha production up to 2000 nM using arachidonic acid as substrate incubated for 10 mins by EIA method relative to indomethacin

inhibition: inactive
SMILES: COc1ccc2c(c1)c(CC(=O)O)c(/C=C/C(F)(F)F)n2C(=O)c1ccc(Cl)cc1
